# According to patent publication US11357779B2 (G1 Therapeutics, Inc., priority 2018, dated 2022):
# Read-outs that look alike come from different tables or passages of the source.
# Assay: Plasma concentration versus time of Compound I and metabolite Compound III in patients dosed QD or BID with Form B of Compound II plus fulvestrant
# Type: in vivo, human
# Details: human, plasma, oral; for concentration at 22 day: Day 22; for concentration at 24 h: Day 1, […]
# Source text: Patients were enrolled into 1 of 2 parallel, independently operating, dose-escalation dosing cohorts with Form B of Compound II administered continuously either once daily (QD) or twice daily (BID) with food with fixed-dose fulvestrant (intramuscularly every 14 days for the first three injections and then every 28 days). Pre- or perimenopausal patients also received goserelin for the duration of study treatment. A […] agonist was started at least 28 days before the first dose of Form B, and those patients who were taking another LHRH agonist were switched to goserelin on Day 1. Patients were split into […] cohorts providing once a day (QD) dosing of 200 mg, 300 mg, 400 mg, 500 mg, or 650 mg of Form B, or twice a day (BID) dosing of 100 mg, 150 mg, or 200 mg of Form B. The second dose in BID cohorts was not administered in the evening until at least 12 hours after the initial morning dose of Form B. The dosing cohorts for Form B of Compound II are provided in Table 1.
# Blood samples were collected at the following time points relative to the morning dose of Form B at Day 1 and at Day 29: pre-dose (0 hour) and 1, 2, 3, 4, 6, 8, 10, 12 (prior to the evening dose in the BID cohorts), and 24 (prior to the next day's morning dose) hours after dosing. A 5-minute time window was allowed for samples collected between the predose and 3 hours after Form B dosing. A 15-minute window was allowed for samples collected between 4 to 12 hours after Form B dosing. A 1-hour window was allowed for the sample collected 24 hours after Form B dosing. Blood samples for Compound I PK trough levels were collected pre-dose at Day 8, Day 15, and Day 22 prior to the morning administration of Compound I. Plasma concentrations of Compound I and its metabolite, Compound III, were measured using validated methods.
# Analysis of plasma concentration versus time data for calculation of standard pharmacokinetic (PK) parameters following oral administration was conducted using Phoenix WinNonlin version 6.3 using actual blood sampling times.
compound,measurement,setting,value
"CC(C)N1CCN(c2ccc(Nc3ncc4cc5n(c4n3)C3(CCCCC3)CNC5=O)nc2)CC1 [Compound I, 2′-((5-(4-isopropylpiperazin-1-yl)pyridin-2-yl)amino)-7′,8′-dihydro-6′H-spiro[cyclohexane-1,9′-pyrazino[1′,2′:1,5]pyrrolo[2,3-d]pyrimidin]-6′-one]",concentration at 15 day,"150 mg, Cohort 7, 150 mg BID of Form B, Day 15, read-out: Trough Compound I Concentration, Min",15.5 ng/mL
same,concentration at 22 day,"150 mg, Cohort 7, 150 mg BID of Form B, read-out: Trough Compound I Concentration, Max",30.5 ng/mL
same,concentration at 22 day,"150 mg, Cohort 7, 150 mg BID of Form B, read-out: Trough Compound I Concentration, Median",15.9 ng/mL
same,concentration at 22 day,"150 mg, Cohort 7, 150 mg BID of Form B, read-out: Trough Compound I Concentration, Min",15.5 ng/mL
same,concentration at 0 h,"150 mg, Cohort 7, 150 mg BID of Form B, Day 29, 0.0 h, read-out: Compound I Concentration, Max",51.1 ng/mL
same,concentration at 0 h,"150 mg, Cohort 7, 150 mg BID of Form B, Day 29, 0.0 h, read-out: Compound I Concentration, Median",18.5 ng/mL
same,concentration at 1 h,"150 mg, Cohort 7, 150 mg BID of Form B, Day 29, 1.0 h, read-out: Compound I Concentration, Median",28.7 ng/mL
same,concentration at 2 h,"150 mg, Cohort 7, 150 mg BID of Form B, Day 29, 2.0 h, read-out: Compound I Concentration, Median",34.3 ng/mL
same,concentration at 3 h,"150 mg, Cohort 7, 150 mg BID of Form B, Day 29, 3.0 h, read-out: Compound I Concentration, Median",35.6 ng/mL
same,concentration at 4 h,"150 mg, Cohort 7, 150 mg BID of Form B, Day 29, 4.0 h, read-out: Compound I Concentration, Median",36.9 ng/mL
same,concentration at 6 h,"150 mg, Cohort 7, 150 mg BID of Form B, Day 29, 6.0 h, read-out: Compound I Concentration, Median",26.5 ng/mL
same,concentration at 8 h,"150 mg, Cohort 7, 150 mg BID of Form B, Day 29, 8.0 h, read-out: Compound I Concentration, Median",26.9 ng/mL
same,concentration at 10 h,"150 mg, Cohort 7, 150 mg BID of Form B, Day 29, 10.0 h, read-out: Compound I Concentration, Median",23.8 ng/mL
same,concentration at 12 h,"150 mg, Cohort 7, 150 mg BID of Form B, Day 29, 12.0 h, read-out: Compound I Concentration, Median",17.3 ng/mL
same,concentration at 0 h,"200 mg, 200 mg BID of Form B, Day 1, 0.0 h, Mean, read-out: Compound I Concentration",0 ng/mL
same,concentration at 0 h,"200 mg, 200 mg BID of Form B, Day 1, 0.0 h, Median, read-out: Compound I Concentration",0 ng/mL
same,concentration at 1 h,"200 mg, 200 mg BID of Form B, Day 1, 1.0 h, Mean, read-out: Compound I Concentration",5.79 ng/mL
same,concentration at 1 h,"200 mg, 200 mg BID of Form B, Day 1, 1.0 h, Median, read-out: Compound I Concentration",6.13 ng/mL
same,concentration at 2 h,"200 mg, 200 mg BID of Form B, Day 1, 2.0 h, Mean, read-out: Compound I Concentration",9.42 ng/mL
same,concentration at 2 h,"200 mg, 200 mg BID of Form B, Day 1, 2.0 h, Median, read-out: Compound I Concentration",11.8 ng/mL
same,concentration at 3 h,"200 mg, 200 mg BID of Form B, Day 1, 3.0 h, Mean, read-out: Compound I Concentration",12.8 ng/mL
same,concentration at 3 h,"200 mg, 200 mg BID of Form B, Day 1, 3.0 h, Median, read-out: Compound I Concentration",14.8 ng/mL
same,concentration at 4 h,"200 mg, 200 mg BID of Form B, Day 1, 4.0 h, Mean, read-out: Compound I Concentration",15.5 ng/mL
same,concentration at 4 h,"200 mg, 200 mg BID of Form B, Day 1, 4.0 h, Median, read-out: Compound I Concentration",14.9 ng/mL
same,concentration at 6 h,"200 mg, 200 mg BID of Form B, Day 1, 6.0 h, Mean, read-out: Compound I Concentration",15.5 ng/mL
same,concentration at 6 h,"200 mg, 200 mg BID of Form B, Day 1, 6.0 h, Median, read-out: Compound I Concentration",17.1 ng/mL
same,concentration at 8 h,"200 mg, 200 mg BID of Form B, Day 1, 8.0 h, Mean, read-out: Compound I Concentration",8.94 ng/mL
same,concentration at 8 h,"200 mg, 200 mg BID of Form B, Day 1, 8.0 h, Median, read-out: Compound I Concentration",9.13 ng/mL
same,concentration at 10 h,"200 mg, 200 mg BID of Form B, Day 1, 10.0 h, Mean, read-out: Compound I Concentration",6.61 ng/mL
same,concentration at 10 h,"200 mg, 200 mg BID of Form B, Day 1, 10.0 h, Median, read-out: Compound I Concentration",6.33 ng/mL
same,concentration at 12 h,"200 mg, 200 mg BID of Form B, Day 1, 12.0 h, Mean, read-out: Compound I Concentration",5.64 ng/mL
same,concentration at 12 h,"200 mg, 200 mg BID of Form B, Day 1, 12.0 h, Median, read-out: Compound I Concentration",4.89 ng/mL
same,concentration at 0 h,"200 mg, 200 mg QD of Form B, Day 1, 0.0 h, Mean, read-out: Compound I Concentration",0 ng/mL
same,concentration at 0 h,"200 mg, 200 mg QD of Form B, Day 1, 0.0 h, Median, read-out: Compound I Concentration",0 ng/mL
same,concentration at 1 h,"200 mg, 200 mg QD of Form B, Day 1, 1.0 h, Mean, read-out: Compound I Concentration",8.42 ng/mL
same,concentration at 1 h,"200 mg, 200 mg QD of Form B, Day 1, 1.0 h, Median, read-out: Compound I Concentration",3.65 ng/mL
same,concentration at 2 h,"200 mg, 200 mg QD of Form B, Day 1, 2.0 h, Mean, read-out: Compound I Concentration",13.6 ng/mL
same,concentration at 2 h,"200 mg, 200 mg QD of Form B, Day 1, 2.0 h, Median, read-out: Compound I Concentration",12.3 ng/mL
same,concentration at 3 h,"200 mg, 200 mg QD of Form B, Day 1, 3.0 h, Mean, read-out: Compound I Concentration",20.2 ng/mL
same,concentration at 3 h,"200 mg, 200 mg QD of Form B, Day 1, 3.0 h, Median, read-out: Compound I Concentration",18.1 ng/mL
same,concentration at 4 h,"200 mg, 200 mg QD of Form B, Day 1, 4.0 h, Mean, read-out: Compound I Concentration",25 ng/mL
same,concentration at 4 h,"200 mg, 200 mg QD of Form B, Day 1, 4.0 h, Median, read-out: Compound I Concentration",27 ng/mL
same,concentration at 6 h,"200 mg, 200 mg QD of Form B, Day 1, 6.0 h, Mean, read-out: Compound I Concentration",16.8 ng/mL
same,concentration at 6 h,"200 mg, 200 mg QD of Form B, Day 1, 6.0 h, Median, read-out: Compound I Concentration",17.7 ng/mL
same,concentration at 8 h,"200 mg, 200 mg QD of Form B, Day 1, 8.0 h, Mean, read-out: Compound I Concentration",11.6 ng/mL
same,concentration at 8 h,"200 mg, 200 mg QD of Form B, Day 1, 8.0 h, Median, read-out: Compound I Concentration",12.2 ng/mL
same,concentration at 10 h,"200 mg, 200 mg QD of Form B, Day 1, 10.0 h, Mean, read-out: Compound I Concentration",8.28 ng/mL
same,concentration at 10 h,"200 mg, 200 mg QD of Form B, Day 1, 10.0 h, Median, read-out: Compound I Concentration",9.13 ng/mL
same,concentration at 12 h,"200 mg, 200 mg QD of Form B, Day 1, 12.0 h, Mean, read-out: Compound I Concentration",6.29 ng/mL
same,concentration at 12 h,"200 mg, 200 mg QD of Form B, Day 1, 12.0 h, Median, read-out: Compound I Concentration",6.43 ng/mL
same,concentration at 24 h,"200 mg, 200 mg QD of Form B, Mean, read-out: Compound I Concentration",3.61 ng/mL
same,concentration at 24 h,"200 mg, 200 mg QD of Form B, Median, read-out: Compound I Concentration",3.24 ng/mL
same,concentration at 0 h,"200 mg, 200 mg QD of Form B, Day 29, 0.0 h, Mean, read-out: Compound I Concentration",4.05 ng/mL
same,concentration at 0 h,"200 mg, 200 mg QD of Form B, Day 29, 0.0 h, Median, read-out: Compound I Concentration",4.1 ng/mL
same,concentration at 1 h,"200 mg, 200 mg QD of Form B, Day 29, 1.0 h, Mean, read-out: Compound I Concentration",5.12 ng/mL
same,concentration at 1 h,"200 mg, 200 mg QD of Form B, Day 29, 1.0 h, Median, read-out: Compound I Concentration",5.35 ng/mL
same,concentration at 2 h,"200 mg, 200 mg QD of Form B, Day 29, 2.0 h, Mean, read-out: Compound I Concentration",6.92 ng/mL
same,concentration at 2 h,"200 mg, 200 mg QD of Form B, Day 29, 2.0 h, Median, read-out: Compound I Concentration",7.27 ng/mL
same,concentration at 3 h,"200 mg, 200 mg QD of Form B, Day 29, 3.0 h, Mean, read-out: Compound I Concentration",12.5 ng/mL
